In patent US20240018135A1, “COMPOUND HAVING INHIBITORY ACTIVITY AGAINST O-GLUSACASE AND USE THEREOF” (MEDIFRON DBT INC., priority 2020, published 2024):

Tests used:
[1] = target: Human OGA (recombinant hOGA protein) (Homo sapiens (Human), UniProt O60502); assay: Human OGA enzyme activity assay (fluorescence, 4-Methylumbelliferyl N-acetyl-β-D-glucosaminide substrate); assay type: biochemical; conditions: for IC50: Table 1; for % of inhibition: Table 1, test concentration not given
Chain of Human OGA (recombinant hOGA protein) (O60502 whole entry): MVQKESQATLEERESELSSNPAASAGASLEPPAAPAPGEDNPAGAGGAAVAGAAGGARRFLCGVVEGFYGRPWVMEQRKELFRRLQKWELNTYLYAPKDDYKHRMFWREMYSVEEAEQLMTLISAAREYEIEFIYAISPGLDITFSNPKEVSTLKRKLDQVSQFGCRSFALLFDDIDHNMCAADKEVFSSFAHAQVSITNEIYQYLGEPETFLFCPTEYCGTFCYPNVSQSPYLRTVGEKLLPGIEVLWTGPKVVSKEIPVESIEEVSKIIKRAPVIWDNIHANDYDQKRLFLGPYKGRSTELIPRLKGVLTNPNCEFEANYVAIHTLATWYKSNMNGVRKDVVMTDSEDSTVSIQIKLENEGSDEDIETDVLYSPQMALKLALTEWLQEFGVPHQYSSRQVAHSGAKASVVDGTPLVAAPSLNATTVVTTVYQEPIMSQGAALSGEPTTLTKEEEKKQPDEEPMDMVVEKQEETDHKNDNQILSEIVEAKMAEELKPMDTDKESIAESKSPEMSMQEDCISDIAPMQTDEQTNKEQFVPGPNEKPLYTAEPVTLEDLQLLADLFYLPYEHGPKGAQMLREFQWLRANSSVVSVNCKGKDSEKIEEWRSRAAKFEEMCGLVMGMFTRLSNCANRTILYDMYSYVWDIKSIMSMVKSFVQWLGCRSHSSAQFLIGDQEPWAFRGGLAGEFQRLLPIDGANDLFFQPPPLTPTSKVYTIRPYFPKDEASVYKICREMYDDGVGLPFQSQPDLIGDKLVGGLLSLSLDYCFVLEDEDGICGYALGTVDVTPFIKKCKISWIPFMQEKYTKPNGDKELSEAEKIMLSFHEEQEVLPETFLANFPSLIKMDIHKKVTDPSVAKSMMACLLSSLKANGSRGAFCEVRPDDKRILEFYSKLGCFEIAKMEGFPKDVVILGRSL

| Compound | melting point | IC50 [1] | % of inhibition [1] |
| --- | --- | --- | --- |
| CC(=O)Nc1ncc(CN2CCN(CC(=O)Nc3ccc4ncccc4c3)CC2)s1 [Compound A-22, 2-(4-((2-acetamidothiazol-5-yl)methyl)piperazin-1-yl)-N-(quinolin-6-yl)acetamide] | 248 to 250 °C | 900 nM | 97.5% |
| CC(=O)Nc1ncc(CN2CCN(CC(=O)Nc3ccc4nccnc4c3)CC2)s1 [Compound A-23, 2-(4-((2-acetamidothiazol-5-yl)methyl)piperazin-1 yl)-N-(quinoxalin-6-yl)acetamide] | 234 to 235 °C |  | 70.1% |
| CC(=O)Nc1ncc(CN2CCN(CC(=O)Nc3cccc4ccccc34)CC2)s1 [Compound A-24, 2-(4-((2-acetamidothiazol-5-yl)methyl)piperazin-1-yl)-N-(naphthalen-1-yl)acetamide] | 257 to 258 °C |  | 71.3% |
| CC(=O)Nc1ncc(CN2CCN(CC(=O)Nc3nc4ccccc4[nH]3)CC2)s1 [Compound A-26, 2-(4-((2-acetamidothiazol-5-yl)methyl)piperazin-1-yl)-N-(1H-benzo[d]imidazol-2-yl)acetamide] | 233 to 236 °C |  | 62.6% |
| CCOc1ccc2nc(NC(=O)CN3CCN(Cc4cnc(NC(C)=O)s4)CC3)sc2c1 [Compound A-29, 2-(4-((2-acetamidothiazol-5 yl)methyl)piperazin-1 yl)-N-(6-ethoxybenzo[d]thiazol-2-yl)acetamide] | 244 to 246 °C |  | 44.6% |
| CC(=O)Nc1ncc(CN2CCN(CC(=O)N(C)c3ccccc3)CC2)s1 [Compound A-31, 2-(4-((2-acetamidothiazol-5-yl)methyl)piperazin-1-yl)-N-methyl-N-phenylacetamide] | 208 to 210 °C |  | 50.4% |
| CC(=O)Nc1ncc(CN2CCN(CC(=O)Nc3ccccc3)CC2C)s1 (stereo not shown) [Compound A-32, 2-(4-((2-acetamidothiazol-5 yl)methyl)-3-methylpiperazin-1-yl)-N-phenylacetamide] | 174 to 176 °C | 240 nM | 97.0% |
| CC(=O)Nc1ncc(CN2CCN(CC(=O)Nc3ccc(F)cc3)CC2C)s1 (stereo not shown) [Compound A-33, 2-(4-((2-acetamidothiazol-5-yl)methyl)-3-methylpiperazin-1-yl)-N-(4-fluorophenyl)acetamide] | 102 to 105 °C | 230 nM | 97.9% |

Second part, the molecule after the results:

| melting point | IC50 [1] | % of inhibition [1] | Compound |
| --- | --- | --- | --- |
| 216 to 219 °C |  | 59.2% | CC(=O)Nc1ncc(CN2CCN(CC(=O)Nc3ccc4[nH]ccc4c3)CC2)s1 [Compound A-25, 2-(4-((2-acetamidothiazol-5-yl)methyl)piperazin-1-yl)-N-(1H-indol-5-yl)acetamide] |
| 248 to 249 °C |  | 46.2% | CC(=O)Nc1ncc(CN2CCN(CC(=O)Nc3nc4ccccc4s3)CC2)s1 [Compound A-27, 2-(4-((2-acetamidothiazol-5-yl)methyl)piperazin-1 yl)-N-(benzo[d]thiazol-2-yl)acetamide] |
| 255 to 257 °C |  | 42.6% | CC(=O)Nc1ncc(CN2CCN(CC(=O)Nc3nc4c(Cl)cccc4s3)CC2)s1 [Compound A-30, 2-(4-((2-acetamidothiazol-5-yl)methyl)piperazin-1-yl)-N-(4-chlorobenzo[d]thiazol-2-yl)acetamide] |
| 184 to 187 °C | 100 nM | 98.4% | CC(=O)Nc1ncc(CN2CCN(CC(=O)NC3CCCCC3)CC2C)s1 (stereo not shown) [Compound A-35, 2-(4-((2-acetamidothiazol-5-yl)methyl)-3-methylpiperazin-1-yl)-N-cyclohexylacetamide] |
| 180 to 182 °C | 1040 nM | 96.2% | CC(=O)Nc1ncc(CN2CCN(CC(=O)Nc3ccc(N4CCN(C(C)=O)CC4)cc3)CC2)s1 [Compound A-36, 2-(4-((2-acetamidothiazol-5 yl)methyl)piperazin-1-yl)-N-(4-(4-acetylpiperazin-1-yl)phenyl)acetamide] |
